# In article PMC9240925, “Mechanistic study of the solubilization effect of basic amino acids on a poorly water-soluble drug” (RSC Advances, 2022):
# Read-outs that look alike come from different tables or passages of the source.
# How the values were obtained:
# [1] = Differential scanning calorimetry, glass transition; assay type: physicochemical; conditions: for Tg, Gordon–Taylor (glass transition temperature): calculated by Gordon–Taylor equation with crystalline densities
# Procedure: DSC was performed using a Q20 instrument V24.7 build 119 thermal analysis system with an intercooler system (Elstree, United Kingdom). The DSC system was calibrated and validated using indium (average melting temperature 156.36 ± 0.03 °C and enthalpy 29.81 ± 0.05 J g^−1). Powder samples of 1 to 5 mg were weighed in T-zero aluminum pans with T-zero lids (TA Instruments – A Division of Waters Ltd, Centennial Avenue, Elstree, Hertfordshire, United Kingdom). […] All results were analyzed using the TRIOS software for the phases transitions to determine the glass transition temperature (Tg) and melting point (Tm).
# Indomethacin (as received) was analyzed in two heating cycles to produce an amorphous form. The first cycle was to measure the Tm of the crystalline form and the second cycle was for obtaining the Tg of amorphous indomethacin. The freeze-dried complexes and crystalline arginine, histidine and lysine were undergone one heating cycle to determine the Tg or Tm. The Tg described by Gordon–Taylor[39] was determined for drug–basic amino acids binary systems using the given equations below.
# The Gordon–Taylor equation from composite glasses:3 [drawing 3]
# T g(mix) is the glass transition temperature of a binary mixture, w1 and w2 are the weight fraction and Tg1 and Tg2 are the glass transitions temperature of individual compound in the mixture, K is typically considered an empirical constant:4 [drawing 4] where p1 and p2 are the powder densities of the single amorphous components. The crystalline densities of compounds (pIND = 1.379 g cm^−3pARG = 1.325 g cm^−3, pHIS = 1.412 g cm^−3 and pLYS = 1.237 g cm^−3) were used as approximation because small differences in density were reported between crystalline and amorphous form of small molecular compound.[9]
# [2] = cited from earlier work
# [3] = set-up: method as in ref 34 = [34]; Robert C. W. , Handbook of Chemistry and Physics , ed. R. C. Weast , CRC Press , Ohio , 55th edn, 1975; conditions: at 25 °C; cited from earlier work
# [4] = set-up: method as in as printed in each cell: ref 60, 62, 63, 10, 64; conditions: cited from earlier work
# [5] = set-up: method as in ref 42 = [42]; Archontaki H. A. Kinetic Study on the Degradation of lndomethacin in Alkaline Aqueous Solutions by Derivative Ultraviolet Spectrophotometry Analyst 1995 120 1 8; conditions: pH = 13; cited from earlier work
# [6] = Hydrotropic solubilization in amino acid solutions at controlled pH; assay type: physicochemical
# Procedure: The pH of the solutions was adjusted by adding 0.1 M hydrochloric acid and monitored with a pH meter (OXOID limited, England). Excess indomethacin was then added to the amino acid solutions. The suspension was stirred with a magnetic stirrer for 24 hours at 30 ± 2 °C or 45 ± 2 °C until it is equilibrated followed by adjusting the pH again. The samples were then filtered via a membrane filter (syringe filter, 0.45 μm sterile).
# [7] = Physical and chemical stability of indomethacin in solution (UV-Vis); assay type: physicochemical
# Procedure: Spectra were collected using the UV Lambda software over the wavelength range of 400 nm–200 nm. The same solvent without the drug/amino acid was used as the reference. Samples were analyzed at identical conditions: slit width 1 nm, bandwidth 0.5 nm, pair cuvette cells 1 cm.
# The results were recorded for samples stored over a week at ambient temperature (25 ± 1 °C). Chemical stability was confirmed by measuring the UV absorbance at 320 nm.
# [8] = set-up: method as in ref 34 = [34]; Robert C. W. , Handbook of Chemistry and Physics , ed. R. C. Weast , CRC Press , Ohio , 55th edn, 1975; conditions: cited from earlier work
# [9] = Phase solubility diagrams of indomethacin in basic amino acid solutions and complexation efficiency; assay type: physicochemical; conditions: 30 °C
# Procedure: After equilibration, the mixtures were centrifuged at 3750 rpm for 10 minutes (Beckman Coulter Allegra X-12 Series). […] The supernatant was filtered via a membrane filter (syringe filter, 0.45 μm sterile). The solutions were then diluted within the calibration curve range and analyzed spectrophotometrically at 260 nm. The precipitates (solid phase) were filtered again using filter paper (Whatman Grade 3). The solid phase was dried in an oven at 70 °C for 30 minutes, then examined using FTIR.
# The complexation or solubilizing efficiency (CE)[36] was calculated from the slope of the linear drug–amino acid phase solubility (PS) diagram using the following eqn (1):1 [drawing 1] where K1:1 indicates to the stability constant, which is used to compare the affinity of drug to different amino acids. S0 refers to the intrinsic solubility, [drug–amino acid complex] is the concentration of dissolved drug–amino acid complex, [amino acid] is the concentration of dissolved free amino acid and slope is the slope of the phase solubility diagram.
# [10] = pH-solubility study, shake flask method; assay type: physicochemical; conditions: mean ± SD n = 3
# Procedure: The samples were then filtered using a membrane filter (syringe filter, 0.45 μm sterile). The filtered solutions were diluted within the range of calibration curves and analyzed spectrophotometrically at 260 nm.
# [11] = Drug content and chemical stability of freeze-dried mixtures by UV-Vis; assay type: physicochemical; conditions: with all amino acids, peak position at 320 nm
# Procedure: The resulting filtrates were frozen for 24 hours at −80 °C and then freeze-dried for 48 hours (LTE Scientific Lyotrap Freeze Dryer, Great Britain, Greenfield, Oldham) with the system temperature of −51 ± 2 °C, pressure of around 0.1 mbar and the vacuum pump operated at a flow rate of 21 m^3 h^−1. The freeze-dried samples were then transferred into a plastic vacuum desiccator containing phosphorous pentoxide desiccant (P2O5) at ambient temperature (22 ± 2 °C). Indomethacin–sodium salt was also produced for comparison purposes.
# The freeze-dried samples were prepared by dissolving 10 mg freeze-dried materials in water in a 10 mL volumetric flask. The solutions were then diluted to concentrations that fall within the calibration curve and analyzed at 320 nm. The percentage drug content[37] was calculated by eqn (2)2 [drawing 2]
compound,measurement,setting,value
"N=C(N)NCCC[C@H](N)C(=O)O [Arginine, L-arginine]","Tg, Gordon–Taylor (glass transition temperature)",[1],55.0 °C
"NCC(=O)O [Glycine, glycine]",pI (isoelectric point),[2],5.97
"N[C@@H](Cc1c[nH]cn1)C(=O)O [Histidine, L-histidine]",Water solubility,[3],4.20 g/100 mL
same,pI (isoelectric point),[2],7.59
same,"Tg, Gordon–Taylor (glass transition temperature)",[1],37.0 °C
same,"Tg, lit. (glass transition temperature)",[4],37.0 (ref. [63]) °C
COc1ccc2c(c1)c(CC(=O)O)c(C)n2C(=O)c1ccc(Cl)cc1 [Indomethacin],Stability in solution of high pH,[5],rapidly hydrolyzed
same,Solubility improvement of ionized indomethacin compared to aqueous solubility at same pH without histidine,"[6]; 0.35 M histidine solution, pH 7",~8 fold
same,Solubility improvement of unionized indomethacin compared to intrinsic solubility in water,"[6]; 1.5 M isoleucine solution, pH 1.2, 30 °C",~25 fold
same,Solubility improvement of unionized indomethacin compared to intrinsic solubility in water,"[6]; 1.6 M arginine solution, pH 1.2, 30 °C",~11 fold
same,Solubility change of unionized indomethacin compared to intrinsic solubility in water,"[6]; glycine solution, same concentration, pH 1.2, 30 °C",did not change
same,Stability in solution (UV absorbance),"[7]; arginine solution, pH 10.3",gradually degraded after 24 hours
same,Stability in solution (UV absorbance),"[7]; basic amino acid solutions, pH 6.3 to 10.3, duration of experiment less than 24 hours",remains stable
same,Stability in solution (UV absorbance),"[7]; histidine solution, pH 7.5",stable over a week
same,Stability of indomethacin concentration in lysine aqueous solution on storage,"[7]; lysine concentration between 27 and 37 mM (supersaturated, partial precipitation)",dropped after 1 day of storage
same,Stability of indomethacin concentration in lysine aqueous solution on storage,"[7]; lysine concentrations below 27 mM, examined for ten days",appears stable
same,Stability in solution (UV absorbance),"[7]; lysine solution, pH 10",gradually degraded after 24 hours
same,log p (partition coefficient),[8],4.05
same,Phase solubility diagram type (Higuchi and Connors),[9]; indomethacin in arginine solution above 250 mM,AN-type
same,Phase solubility diagram type (Higuchi and Connors),[9]; indomethacin in arginine solution below 250 mM,AL-type
same,Phase solubility diagram type (Higuchi and Connors),[9]; indomethacin in lysine solutions,Bs-type
same,solubility at 24 h,"[10]; 25 °C, simulated gastric fluid, thermodynamic from solid, 25 ± 2 °C, water pH 1.2, unionized form, read-out: Intrinsic solubility (S0)",0.95 µM
same,solubility at 24 h,"[10]; 25 ± 2 °C, water pH 6.3, ionized and unionized forms, read-out: Aqueous solubility (S)",64.2 µM
same,solubility at 24 h,"[10]; 30 °C, aqueous buffer, thermodynamic from solid, 30 ± 2 °C, water pH 6.3, ionized and unionized forms, read-out: Aqueous solubility (S)",81.6 µM
same,solubility at 24 h,"[10]; 30 ± 2 °C, water pH 1.2, unionized form, read-out: Intrinsic solubility (S0)",1.18 µM
same,Water solubility,[3],0.009 g/100 mL
same,Chemical stability after freeze-drying,[11],chemically stable
same,"Tg, exp. (glass transition temperature)","[1]; DSC 5 °C/min, n = 3, IND melt quench, mixtures freeze-dried",42.1 ± 0.5 °C
same,"Tg, Gordon–Taylor (glass transition temperature)",[1],42.1 °C
same,"Tg, lit. (glass transition temperature)",[4],42.0 (ref. [60]) °C
"CC[C@H](C)[C@H](N)C(=O)O [Isoleucine, L-isoleucine]",log p (partition coefficient),[8],−1.70
same,Water solubility,[3],0.41 g/100 mL
same,pI (isoelectric point),[2],6.04
"NCCCC[C@H](N)C(=O)O [Lysine, L-lysine]",Water solubility,[3],Very soluble
same,pI (isoelectric point),[2],9.47
same,"Tg, Gordon–Taylor (glass transition temperature)",[1],68.0 °C
same,"Tg, lit. (glass transition temperature)",[4],68.0 (ref. [63]) °C
